Results: article PMC10916743 (RSC Advances, 2024)
Several values for one entry are separate records, joined by “and”; a condition that tells them apart may be missing. Equal values may be shown once.

What was measured:
[1] = tested on: HCT116 cell line; experiment: MTT cytotoxicity assay, HCT116; assay type: cell-based; details: for IC50: Homo sapiens, HCT-116, read-out: IC50 HCT116; for Selectivity index: fold grander lethalness in HCT116 than in VERO cells: VERO IC50 / HCT116 IC50
[2] = molecular target: EGFR^WT (Homo sapiens, UniProt P00533); experiment: In vitro EGFR^WT kinase inhibitory assay; assay type: biochemical; details: mean ± SD of three separate experiments
Chain of EGFR^WT (P00533 25-1210): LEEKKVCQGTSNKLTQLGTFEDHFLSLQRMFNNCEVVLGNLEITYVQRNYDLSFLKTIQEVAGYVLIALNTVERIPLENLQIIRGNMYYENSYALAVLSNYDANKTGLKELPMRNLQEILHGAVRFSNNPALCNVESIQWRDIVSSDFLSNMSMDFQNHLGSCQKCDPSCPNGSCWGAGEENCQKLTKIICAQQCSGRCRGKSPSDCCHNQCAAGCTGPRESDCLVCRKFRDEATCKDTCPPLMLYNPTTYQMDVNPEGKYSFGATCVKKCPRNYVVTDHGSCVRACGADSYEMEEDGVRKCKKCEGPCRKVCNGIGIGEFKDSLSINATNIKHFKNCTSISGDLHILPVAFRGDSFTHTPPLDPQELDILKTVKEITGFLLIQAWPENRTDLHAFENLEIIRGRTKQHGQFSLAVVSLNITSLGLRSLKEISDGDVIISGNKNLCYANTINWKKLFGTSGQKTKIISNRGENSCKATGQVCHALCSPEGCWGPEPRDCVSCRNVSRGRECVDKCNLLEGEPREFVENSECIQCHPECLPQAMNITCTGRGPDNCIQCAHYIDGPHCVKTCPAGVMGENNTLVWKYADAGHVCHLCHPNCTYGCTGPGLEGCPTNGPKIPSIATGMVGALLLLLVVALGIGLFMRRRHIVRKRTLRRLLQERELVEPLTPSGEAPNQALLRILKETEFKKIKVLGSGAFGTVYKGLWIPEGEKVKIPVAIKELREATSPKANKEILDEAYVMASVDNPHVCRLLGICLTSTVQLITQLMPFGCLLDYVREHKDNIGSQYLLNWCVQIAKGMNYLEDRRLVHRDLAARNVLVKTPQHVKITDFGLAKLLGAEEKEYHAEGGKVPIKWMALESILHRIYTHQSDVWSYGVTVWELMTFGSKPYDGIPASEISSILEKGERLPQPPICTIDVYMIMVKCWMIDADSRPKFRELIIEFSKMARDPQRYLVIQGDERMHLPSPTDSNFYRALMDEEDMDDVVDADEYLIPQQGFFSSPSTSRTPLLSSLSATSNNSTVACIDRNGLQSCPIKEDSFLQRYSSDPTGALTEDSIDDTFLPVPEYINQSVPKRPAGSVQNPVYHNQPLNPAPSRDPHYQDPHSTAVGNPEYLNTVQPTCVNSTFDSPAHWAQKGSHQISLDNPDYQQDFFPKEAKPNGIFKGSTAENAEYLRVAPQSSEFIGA

[3] = tested on: HepG2 cell line; experiment: MTT cytotoxicity assay, HepG2; assay type: cell-based; details: for IC50: Homo sapiens, HepG2, read-out: IC50 HepG2; for Selectivity index: fold more toxic against HepG2 than VERO cells: VERO IC50 / HepG2 IC50
[4] = molecular target: EGFR^T790M (Homo sapiens, UniProt P00533, T790M); experiment: In vitro EGFR^T790M kinase inhibitory assay; assay type: biochemical; details: HTRF kinase assay, mean ± SD of three separate experiments
Chain of EGFR^T790M (P00533 25-1210 T790M): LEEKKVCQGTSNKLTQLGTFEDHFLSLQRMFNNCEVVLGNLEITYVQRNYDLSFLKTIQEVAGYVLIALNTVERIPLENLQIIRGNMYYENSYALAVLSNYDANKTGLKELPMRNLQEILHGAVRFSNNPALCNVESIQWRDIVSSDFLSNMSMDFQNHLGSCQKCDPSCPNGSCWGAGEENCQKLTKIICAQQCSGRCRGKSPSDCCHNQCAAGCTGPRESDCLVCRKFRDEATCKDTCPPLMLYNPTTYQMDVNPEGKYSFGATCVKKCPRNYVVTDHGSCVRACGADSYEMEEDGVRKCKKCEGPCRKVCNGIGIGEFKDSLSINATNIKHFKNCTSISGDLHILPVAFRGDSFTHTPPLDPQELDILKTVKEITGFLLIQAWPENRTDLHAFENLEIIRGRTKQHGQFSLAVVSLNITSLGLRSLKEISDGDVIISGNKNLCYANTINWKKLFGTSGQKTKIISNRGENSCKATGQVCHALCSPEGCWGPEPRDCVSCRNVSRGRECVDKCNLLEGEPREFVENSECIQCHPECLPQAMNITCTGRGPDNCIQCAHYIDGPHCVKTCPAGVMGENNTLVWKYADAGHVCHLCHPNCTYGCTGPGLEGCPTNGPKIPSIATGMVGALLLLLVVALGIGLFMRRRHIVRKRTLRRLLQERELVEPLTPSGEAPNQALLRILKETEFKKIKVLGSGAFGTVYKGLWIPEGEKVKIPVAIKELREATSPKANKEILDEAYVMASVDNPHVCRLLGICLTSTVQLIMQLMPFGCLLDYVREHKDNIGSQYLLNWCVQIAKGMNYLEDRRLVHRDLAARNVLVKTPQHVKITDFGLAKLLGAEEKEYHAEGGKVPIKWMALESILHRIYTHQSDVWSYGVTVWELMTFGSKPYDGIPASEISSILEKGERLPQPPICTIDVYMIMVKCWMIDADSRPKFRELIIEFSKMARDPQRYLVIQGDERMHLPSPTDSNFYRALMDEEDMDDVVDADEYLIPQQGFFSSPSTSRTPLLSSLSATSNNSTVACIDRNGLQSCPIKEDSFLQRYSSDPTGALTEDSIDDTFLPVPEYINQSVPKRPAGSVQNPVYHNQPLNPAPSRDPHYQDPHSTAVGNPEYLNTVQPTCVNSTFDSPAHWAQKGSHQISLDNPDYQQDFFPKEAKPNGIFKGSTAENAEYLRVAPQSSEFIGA

[5] = tested on: MCF-7 cell line; experiment: MTT cytotoxicity assay, MCF-7; assay type: cell-based; details: for IC50: Homo sapiens, MCF7, read-out: IC50 MCF-7; for Selectivity index: fold more toxic in MCF-7 than in VERO cells: VERO IC50 / MCF-7 IC50
[6] = tested on: A549 cell line; experiment: MTT cytotoxicity assay, A549; assay type: cell-based; details: for IC50: Homo sapiens, A549, read-out: IC50 A549; for Selectivity index: fold more toxicity in A549 than in VERO cells: VERO IC50 / A549 IC50

With C=CCn1c(=O)n(CC(=O)Nc2ccc(C(=O)NC)cc2)c(=O)c2cc(I)ccc21 [Compound 5a, 4-{2-[1-Allyl-6-iodo-2,4-dioxo-1,4-dihydroquinazolin-3(2H)-yl]acetamido}-N-methylbenzamide] the IC50 [1] was 13.4 ± 1.5 µM, the IC50 [2] was 1.32 ± 0.25 µM and the IC50 [3] was 15 ± 1.5 µM. The IC50 [4] was 1.62 ± 0.2 µM, the IC50 [5] was 13.2 ± 1 µM and the IC50 [6] was 10.6 ± 1.5 µM.
C=CCn1c(=O)n(CC(=O)Nc2ccc(C(=O)NCC)cc2)c(=O)c2cc(I)ccc21 [Compound 5b, 4-{2-[1-Allyl-6-iodo-2,4-dioxo-1,4-dihydroquinazolin-3(2H)-yl]acetamido}-N-ethylbenzamide] showed an IC50 [1] of 11 ± 1.3 µM, an IC50 [2] of 1 ± 0.15 µM and an IC50 [3] of 12.5 ± 1 µM. For the same compound, the IC50 [4] was 1.33 ± 0.1 µM, the IC50 [5] was 11.3 ± 1.1 µM and the IC50 [6] was 9.5 ± 1.5 µM.
For C=CCn1c(=O)n(CC(=O)Nc2ccc(C(=O)OC)cc2)c(=O)c2cc(I)ccc21 [Compound 6a, Methyl 4-{2-[1-allyl-6-iodo-2,4-dioxo-1,4-dihydroquinazolin-3(2H)-yl]acetamido}benzoate], the IC50 [1] was 12.1 ± 1.5 µM, the IC50 [2] was 1.15 ± 0.25 µM and the IC50 [3] was 13 ± 1.4 µM. For the same compound, the IC50 [4] was 1.54 ± 0.5 µM, the IC50 [5] was 12.2 ± 1.7 µM and the IC50 [6] was 10.4 ± 1.5 µM.
With C=CCn1c(=O)n(CC(=O)Nc2ccc(C(=O)OCC)cc2)c(=O)c2cc(I)ccc21 [Compound 6b, Ethyl 4-{2-[1-allyl-6-iodo-2,4-dioxo-1,4-dihydroquinazolin-3(2H)-yl]acetamido}benzoate] the IC50 [1] was 9.79 ± 1.8 µM, the IC50 [2] was 0.95 ± 0.35 µM and the IC50 [3] was 11.6 ± 1.8 µM. The IC50 [4] was 1.12 ± 0.5 µM, the IC50 [5] was 11 ± 1.6 µM and the IC50 [6] was 9.39 ± 1.5 µM.
In the case of C=CCn1c(=O)n(CC(=O)Nc2ccc(C(=O)NN)cc2)c(=O)c2cc(I)ccc21 [Compound 7, 2-[1-Allyl-6-iodo-2,4-dioxo-1,4-dihydroquinazolin-3(2H)-yl]-N-[4-(hydrazinecarbonyl)phenyl]acetamide], the IC50 [1] is reported as 15.2 ± 1.7 µM, the IC50 [2] is reported as 1.5 ± 0.15 µM and the IC50 [3] is reported as 16.5 ± 1.6 µM. It also gave an IC50 [4] of 1.9 ± 0.5 µM, an IC50 [5] of 15.2 ± 1.9 µM and an IC50 [6] of 12.2 ± 1.5 µM.
In the case of C=CCn1c(=O)n(CC(=O)Nc2ccc(-c3nnc(S)o3)cc2)c(=O)c2cc(I)ccc21 [Compound 8, 2-(1-Allyl-6-iodo-2,4-dioxo-1,4-dihydroquinazolin-3(2H)-yl)-N-(4-(5-mercapto-1,3,4-oxadiazol-2-yl)phenyl)acetamide], the IC50 [1] is reported as 9.31 ± 1.8 µM, the IC50 [2] is reported as 0.88 ± 0.35 µM and the IC50 [3] is reported as 11.2 ± 1.9 µM. It also gave an IC50 [4] of 0.96 ± 0.5 µM, an IC50 [5] of 10.8 ± 1.8 µM and an IC50 [6] of 9 ± 1.5 µM.
C=CCn1c(=O)n(CC(=O)Nc2ccc(-c3nnc(C)o3)cc2)c(=O)c2cc(I)ccc21 [Compound 9, 2-[1-Allyl-6-iodo-2,4-dioxo-1,4-dihydroquinazolin-3(2H)-yl]-N-[4-(5-methyl-1,3,4-oxadiazol-2-yl)phenyl]acetamide] was tested, and the IC50 [1] was 8.62 ± 1.5 µM, the IC50 [2] was 0.8 ± 0.25 µM and the IC50 [3] was 11 ± 1.4 µM. The IC50 [4] was 0.89 ± 0.5 µM, the IC50 [5] was 10.4 ± 1.7 µM and the IC50 [6] was 7.06 ± 1.5 µM.
With C=CCn1c(=O)n(CC(=O)Nc2ccc(-n3nc(C)cc3C)cc2)c(=O)c2cc(I)ccc21 [Compound 10, 2-[1-Allyl-6-iodo-2,4-dioxo-1,4-dihydroquinazolin-3(2H)-yl]-N-[4-(3,5-dimethyl-1H-pyrazol-1-yl)phenyl]acetamide] the IC50 [1] was 6.96 ± 1.1 µM, the “Selectivity index: fold grander lethalness in HCT116 than in VERO cells” value [1] was 6.24 fold and the IC50 [2] was 0.38 ± 0.35 µM. For the same compound, the IC50 [3] was 7.35 ± 1 µM, the “Selectivity index: fold more toxic against HepG2 than VERO cells” value [3] was 5.91 fold and the IC50 [4] was 0.54 ± 0.5 µM. The IC50 [5] was 7.85 ± 0.9 µM, the “Selectivity index: fold more toxic in MCF-7 than in VERO cells” value [5] was 5.53 fold and the IC50 [6] was 6.9 ± 1.5 µM. The “Selectivity index: fold more toxicity in A549 than in VERO cells” value (“Selectivity index: fold more toxicity” below) [6] was 6.30 fold.
With CNC(=O)c1ccc(NC(=O)Cn2c(=O)c3cc(I)ccc3n(Cc3ccccc3)c2=O)cc1 [Compound 13, 4-{2-[1-Benzyl-6-iodo-2,4-dioxo-1,4-dihydroquinazolin-3(2H)-yl]acetamido}-N-methylbenzamide] the IC50 [1] was 7.36 ± 1.1 µM, the “Selectivity index: fold grander lethalness in HCT116 than in VERO cells” value [1] was 6.37 fold and the IC50 [2] was 0.5 ± 0.15 µM. The IC50 [3] was 8 ± 1.3 µM, the “Selectivity index: fold more toxic against HepG2 than VERO cells” value [3] was 5.86 fold and the IC50 [4] was 0.61 ± 0.1 µM. The IC50 [5] was 8.25 ± 1.1 µM, the “Selectivity index: fold more toxic in MCF-7 than in VERO cells” value [5] was 5.68 fold and the IC50 [6] was 7.1 ± 1.1 µM. The “Selectivity index: fold more toxicity” value [6] was 6.60 fold.
For COC(=O)c1ccc(NC(=O)Cn2c(=O)c3cc(I)ccc3n(Cc3ccccc3)c2=O)cc1 [Compound 14a, Methyl 4-{2-[1-benzyl-6-iodo-2,4-dioxo-1,4-dihydroquinazolin-3(2H)-yl]acetamido}benzoate], the IC50 [1] was 8.5 ± 1.1 µM, the “Selectivity index: fold grander lethalness in HCT116 than in VERO cells” value [1] was 5.91 fold and the IC50 [2] was 0.6 ± 0.35 µM. The IC50 [3] was 9 ± 1.2 µM, the “Selectivity index: fold more toxic against HepG2 than VERO cells” value [3] was 5.58 fold and the IC50 [4] was 0.75 ± 0.5 µM. The IC50 [5] was 8.35 ± 1.5 µM, the “Selectivity index: fold more toxic in MCF-7 than in VERO cells” value [5] was 6.01 fold and the IC50 [6] was 7.87 ± 1.1 µM. For the same compound, the “Selectivity index: fold more toxicity” value [6] was 6.38 fold.
CCOC(=O)c1ccc(NC(=O)Cn2c(=O)c3cc(I)ccc3n(Cc3ccccc3)c2=O)cc1 [Compound 14b, Ethyl 4-{2-[1-benzyl-6-iodo-2,4-dioxo-1,4-dihydroquinazolin-3(2H)-yl]acetamido}benzoate] was tested, and the IC50 [1] was 6.15 ± 1.5 µM, the “Selectivity index: fold grander lethalness in HCT116 than in VERO cells” value [1] was 7.99 fold and the IC50 [2] was 0.25 ± 0.35 µM. For the same compound, the IC50 [3] was 5.86 ± 1 µM, the “Selectivity index: fold more toxic against HepG2 than VERO cells” value [3] was 8.39 fold and the IC50 [4] was 0.36 ± 0.1 µM. For the same compound, the IC50 [5] was 7.03 ± 1.1 µM, the “Selectivity index: fold more toxic in MCF-7 than in VERO cells” value [5] was 6.99 fold and the IC50 [6] was 5.77 ± 1.3 µM. The “Selectivity index: fold more toxicity” value [6] was 8.52 fold.
For NNC(=O)c1ccc(NC(=O)Cn2c(=O)c3cc(I)ccc3n(Cc3ccccc3)c2=O)cc1 [Compound 15, 2-[1-Benzyl-6-iodo-2,4-dioxo-1,4-dihydroquinazolin-3(2H)-yl]-N-[4-(hydrazinecarbonyl)phenyl]acetamide], the IC50 [1] was 8.95 ± 1 µM, the “Selectivity index: fold grander lethalness in HCT116 than in VERO cells” value [1] was 5.82 fold and the IC50 [2] was 0.65 ± 0.15 µM. For the same compound, the IC50 [3] was 9.5 ± 1 µM, the “Selectivity index: fold more toxic against HepG2 than VERO cells” value [3] was 5.49 fold and the IC50 [4] was 0.8 ± 0.1 µM. For the same compound, the IC50 [5] was 8.8 ± 1 µM, the “Selectivity index: fold more toxic in MCF-7 than in VERO cells” value [5] was 5.92 fold and the IC50 [6] was 8.18 ± 1 µM. The “Selectivity index: fold more toxicity” value [6] was 6.37 fold.
With O=C(Cn1c(=O)c2cc(I)ccc2n(Cc2ccccc2)c1=O)Nc1ccc(-c2nnc(S)o2)cc1 [Compound 16, 2-[1-Benzyl-6-iodo-2,4-dioxo-1,4-dihydroquinazolin-3(2H)-yl]-N-[4-(5-mercapto-1,3,4-oxadiazol-2-yl)phenyl]acetamide] the IC50 [1] was 6.67 ± 1 µM, the “Selectivity index: fold grander lethalness in HCT116 than in VERO cells” value [1] was 6.56 fold and the IC50 [2] was 0.33 ± 0.25 µM. The IC50 [3] was 6.54 ± 1 µM, the “Selectivity index: fold more toxic against HepG2 than VERO cells” value [3] was 6.69 fold and the IC50 [4] was 0.4 µM and 0.43 µM. The IC50 [5] was 7.36 ± 1 µM, the “Selectivity index: fold more toxic in MCF-7 than in VERO cells” value [5] was 5.95 fold and the IC50 [6] was 6.2 ± 1 µM. The “Selectivity index: fold more toxicity” value [6] was 7.06 fold.
Compound Cc1nnc(-c2ccc(NC(=O)Cn3c(=O)c4cc(I)ccc4n(Cc4ccccc4)c3=O)cc2)o1 [Compound 17, 2-[1-Benzyl-6-iodo-2,4-dioxo-1,4-dihydroquinazolin-3(2H)-yl]-N-[4-(5-methyl-1,3,4-oxadiazol-2-yl)phenyl]acetamide] has an IC50 [1] of 5.4 ± 1.5 µM, an IC50 [2] of 0.15 ± 0.35 µM and an IC50 [3] of 5.55 ± 0.7 µM. For the same compound, the “Selectivity index: fold more toxic against HepG2 than VERO cells” value [3] was 8.31 fold, the IC50 [4] was 0.3 ± 0.5 µM and the IC50 [5] was 6.85 ± 0.9 µM. For the same compound, the “Selectivity index: fold more toxic in MCF-7 than in VERO cells” value [5] was 6.73 fold and the IC50 [6] was 5.11 ± 1.1 µM.
Cc1cc(C)n(-c2ccc(NC(=O)Cn3c(=O)c4cc(I)ccc4n(Cc4ccccc4)c3=O)cc2)n1 [Compound 18, 2-[1-Benzyl-6-iodo-2,4-dioxo-1,4-dihydroquinazolin-3(2H)-yl]-N-[4-(3,5-dimethyl-1H-pyrazol-1-yl)phenyl]acetamide] gave an IC50 [1] of 5.68 ± 1.5 µM, an IC50 [2] of 0.17 ± 0.35 µM and an IC50 [3] of 5.25 ± 0.7 µM. For the same compound, the “Selectivity index: fold more toxic against HepG2 than VERO cells” value [3] was 8.67 fold, the IC50 [4] was 0.25 ± 0.5 µM and the IC50 [5] was 6.46 ± 0.9 µM. The “Selectivity index: fold more toxic in MCF-7 than in VERO cells” value [5] was 7.04 fold and the IC50 [6] was 5.24 ± 1.1 µM.
